Target: T1, Human autotaxin enzyme (Homo sapiens, UniProt Q13822)
T1 construct: purchased R&D System
Assay: Evaluation of autotaxin inhibitor, Method B (Test Example 2): TG-mTMP fluorescence
Format: biochemical
Conditions: Assay Method B (Test Example 2), human autotaxin; read-out: Inhibitory Activity (autotaxin enzyme inhibitory activity, IC50 class)
How it was run: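 Human autotaxin in Tris-HCl pH 7.5 buffer with NaCl, MgCl2 and 0.1% BSA was reacted with TG-mTMP (0.5 μM solution added) and test compound for 2 hours at room temperature.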

Structure (SMILES) | IC50 [nM]
N#CCCCCn1c(-c2ccc(C(N)=O)cc2)cc(=O)n2cc(-c3ccc(Cl)cc3)nc12 [Compound 379] | < 10
CCCCCn1c(NCCO)cc(=O)n2cc(-c3ccc(Cl)cc3)nc12 [Compound 222] | 10 to 100
CCCCCn1c(N2CCCC2CCCc2ccccc2)cc(=O)n2cc(-c3ccc(Cl)cc3)nc12 (stereo not drawn) [Compound 278] | 10 to 100
CCCCCn1c(N2CCC(N3CCOCC3)CC2)cc(=O)n2cc(-c3ccc(Cl)cc3)nc12 [Compound 244] | 10 to 100
CCCCCn1c(-c2ccc(N(C)CC3CCCCO3)cc2)cc(=O)n2cc(-c3ccc(Cl)cc3)nc12 (stereo not drawn) [Compound 420] | 10 to 100
CCCCCn1c(-c2ccoc2)cc(=O)n2cc(-c3ccc(Cl)cc3)nc12 [Compound 403] | 10 to 100
CCCCCn1c(NCCN2CCOCC2)cc(=O)n2cc(-c3ccc(Cl)cc3)nc12 [Compound 238] | < 10
CCCCCn1c(N(C)Cc2ccc(C(=O)OC)cc2)cc(=O)n2cc(-c3ccc(Cl)cc3)nc12 [Compound 195] | < 10
CCCCCn1c(-c2ccc(F)cc2)cc(=O)n2cc(-c3ccc(Cl)cc3)nc12 [Compound 368] | < 10
Cc1cc(=O)n2cc(-c3ccc(Cl)cc3)nc2n1Cc1ccc(Br)cc1F [Compound 97] | 10 to 100
Cc1cc(=O)n2cc(-c3ccc(Cl)cc3)nc2n1Cc1cccc(OCC(=O)O)c1 [Compound 96] | 100 to 1000
CCCCCn1c(-c2ccc(C(=O)N(C)C)cc2)cc(=O)n2cc(-c3ccc(Cl)cc3)nc12 [Compound 402] | < 10
Cc1cc(=O)n2cc(-c3ccc(Cl)cc3)nc2n1Cc1ccc(Oc2ccccc2)cc1 [Compound 93] | > 1000
CCCCCn1c(N2CCC(C(=O)O)CC2)cc(=O)n2cc(-c3ccc(Cl)cc3)nc12 [Compound 225] | < 10
CCCCCn1c(-c2ccc(N3CCN(C)CC3)cc2)cc(=O)n2cc(-c3ccc(Cl)cc3)nc12 [Compound 416] | < 10
N#Cc1ccc(-c2cn3c(=O)cc(-c4ccc(C(=O)NCCN5CCOCC5)cc4)n(CCCC(F)(F)F)c3n2)cc1 [Compound 389] | < 10
CCCCCn1c(C)c(C(=O)O)c(=O)n2cc(-c3ccc(Cl)cc3)nc12 [Compound 185] | 100 to 1000
CCCCCOC(=O)CCc1c(C)n(CCCCC)c2nc(-c3ccc(Cl)cc3)cn2c1=O [Compound 201] | < 10
CCCCCn1c(NCc2ccc3c(c2)OCO3)cc(=O)n2cc(-c3ccc(Cl)cc3)nc12 [Compound 249] | 10 to 100
CCCCCn1c(-c2cscn2)cc(=O)n2cc(-c3ccc(Cl)cc3)nc12 [Compound 418] | 10 to 100

Structure (SMILES) | IC50 [nM]
Cc1cc(=O)n2cc(-c3ccc(Cl)cc3)nc2n1Cc1ccc(-c2ncccn2)cc1 [Compound 91] | 10 to 100
CCCCCn1c(N2CCCCCC2)cc(=O)n2cc(-c3ccc(Cl)cc3)nc12 [Compound 247] | 10 to 100
Cc1cc(=O)n2cc(-c3ccc(Cl)cc3)nc2n1Cc1cccc(C(F)(F)F)c1 [Compound 115] | 10 to 100
Cc1cc(=O)n2cc(-c3ccc(Cl)cc3)nc2n1Cc1ccc(C(=O)c2ccccc2)cc1 [Compound 111] | 100 to 1000
O=C(O)c1ccc(CNc2cc(=O)n3cc(-c4ccc(Cl)cc4)nc3n2CCCC(F)(F)F)cc1 [Compound 287] | < 10
CCCCCn1c(C)cc(=O)n2cc(-c3ccc4c(c3)CCC4)nc12 [Compound 150] | 100 to 1000
CCCCCn1c(N2CCN(CCc3ccccc3)CC2)cc(=O)n2cc(-c3ccc(Cl)cc3)nc12 [Compound 223] | 10 to 100
N#CCCCCn1c(NCc2ccc(C(=O)O)cc2)cc(=O)n2cc(-c3ccc(Cl)cc3)nc12 [Compound 286] | < 10
CCCCCn1c(N2CCC[C@H]2C)cc(=O)n2cc(-c3ccc(Cl)cc3)nc12 [Compound 256] | < 10
CCCCCn1c(C)c(CC(=O)O)c(=O)n2cc(-c3ccc(Cl)cc3)nc12 [Compound 179] | 10 to 100
Cc1cc(=O)n2cc(-c3ccc(Cl)cc3)nc2n1Cc1ccc(COc2ccccc2)cc1 [Compound 120] | > 1000
CCCCCn1c(Oc2ccccn2)cc(=O)n2cc(-c3ccc(Cl)cc3)nc12 [Compound 273] | 100 to 1000
CCCCCn1c(C)c(C#N)c(=O)n2cc(-c3ccc(Cl)cc3)nc12 [Compound 184] | > 1000
CCCCCn1c(-c2cc3ccccc3s2)cc(=O)n2cc(-c3ccc(Cl)cc3)nc12 [Compound 393] | 10 to 100
Cc1cc(=O)n2cc(-c3ccc(Cl)cc3)nc2n1C(C)c1cccc(C(F)(F)F)c1 (stereo not drawn) [Compound 108] | 10 to 100
Cc1cncc(Oc2ccc(Cn3c(C)cc(=O)n4cc(-c5ccc(Cl)cc5)nc34)cc2)n1 [Compound 92] | 10 to 100
CCCCCn1c(C)cc(=O)n2cc(-c3ccc(Cl)cc3Cl)nc12 [Compound 158] | 10 to 100
CCCCCn1c(C)cc(=O)n2c(C)c(-c3ccc(Br)cc3)nc12 [Compound 169] | 10 to 100
CCCCCn1c(C)cc(=O)n2cc(-c3ccc(C4CCCCC4)cc3)nc12 [Compound 145] | > 1000
Cc1cc(=O)n2cc(-c3ccc(Cl)cc3)nc2n1Cc1ccc2ccccc2c1 [Compound 102] | 100 to 1000

The remaining lines, values ahead:

IC50 [nM] | Structure (SMILES)
< 10 | CCCCCn1c(N2CCC2)cc(=O)n2cc(-c3ccc(Cl)cc3)nc12 [Compound 196]
< 10 | CCCCCn1c(C=O)cc(=O)n2cc(-c3ccc(Cl)cc3)nc12 [Compound 370]
10 to 100 | CCCCCn1c(-c2cc[nH]n2)cc(=O)n2cc(-c3ccc(Cl)cc3)nc12 [Compound 417]
< 10 | CCCCCn1c(N(C)C)cc(=O)n2cc(-c3ccc(Cl)cc3)nc12 [Compound 231]
10 to 100 | CCCCCn1c(C)cc(=O)n2cc(-c3ccc(OC)cc3)nc12 [Compound 152]
10 to 100 | CCCCCn1c(NCC(=O)O)cc(=O)n2cc(-c3ccc(Cl)cc3)nc12 [Compound 218]
10 to 100 | Cc1cc(=O)n2cc(-c3ccc(Cl)cc3)nc2n1Cc1ccc(C(C)C)cc1 [Compound 95]
10 to 100 | Cc1cc(=O)n2cc(-c3ccc(Cl)cc3)nc2n1CCCC#N [Compound 106]
< 10 | CCCCCn1c(OCCOC)cc(=O)n2cc(-c3ccc(Cl)cc3)nc12 [Compound 269]

Same assay, conditions: Assay Method: Method B (Test Example 2); read-out: Inhibitory Activity (Enzyme Inhibitory Activity, IC50)

IC50 [nM] | Structure (SMILES)
100 to 1000 | CCN(CC)CCn1c(C)cc(=O)n2cc(-c3ccc(Cl)cc3)nc12 [Compound 75]
< 10 | CCCC(Cn1c(C)cc(=O)n2cc(-c3ccc(Cl)cc3)nc12)OS(C)(=O)=O (stereo not drawn) [Compound 84]
10 to 100 | CCCC(O)Cn1c(C)cc(=O)n2cc(-c3ccc(Cl)cc3)nc12 (stereo not drawn) [Compound 42]
10 to 100 | CCCC(C)n1c(C)cc(=O)n2cc(-c3ccc(Cl)cc3)nc12 (stereo not drawn) [Compound 56]
100 to 1000 | Cc1ccccc1Cn1c(C)cc(=O)n2cc(-c3ccc(Cl)cc3)nc12 [Compound 64]
10 to 100 | Cc1cc(=O)n2cc(-c3ccc(Cl)cc3)nc2n1Cc1ccccc1 [Compound 13]
10 to 100 | Cc1cc(=O)n2cc(-c3ccc(Cl)cc3)nc2n1C(C)c1ccccc1 (stereo not drawn) [Compound 54]
10 to 100 | Cc1cc(=O)n2cc(-c3ccc(Cl)cc3)nc2n1CCc1ccccc1 [Compound 82]
10 to 100 | Cc1cc(=O)n2cc(-c3ccc(Cl)cc3)nc2n1CC(=O)OC(C)(C)C [Compound 73]
< 10 | Cc1cc(=O)n2cc(-c3ccc(Cl)cc3)nc2n1CCCC(C)C [Compound 81]
10 to 100 | C=CCCCn1c(C)cc(=O)n2cc(-c3ccc(Cl)cc3)nc12 [Compound 43]
